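In this assay, cells in 96-well plates receive the compound at five concentrations for 48 hours. Endpoints are linearly interpolated between the surrounding concentrations. GI50 marks 50% less growth. Definition used: TGI = concentration required for complete inhibition of growth.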 Bounds are passed on as bounds.

What all share (assay): NCI-60 cell line screen, 48 h
The subject of assay [1] is SF-539 CNS.
In assay [2] the test system is ACHN renal.
Assay [3] relates to OVCAR-4 ovarian.
The test system of assay [4] is SW-620 colon.
The test system of assay [5] is SK-MEL-5 melanoma.
In assay [6] the test system is SK-MEL-28 melanoma.
Assay [7] deals with SK-MEL-2 melanoma.
For assay [8], the system named is COLO 205 colon.
Assay [9] deals with CAKI-1 renal.
Assay [10] has as its system DU-145 prostate.

`CCN(CC)CCNc1ccc2nnn3c4ccccc4c(=O)c1c23`: the TGI is 19.6 µM in [1]; greater than 100 µM in assay [2]; 13.7 µM in [3]; 15.4 µM in [4]; 10.3 µM in [5]; 16 µM in assay [6]. Further, the TGI in [7] is 14 µM; in assay [8], 16.2 µM; in [9], greater than 33.7 µM.

With `Oc1cc(CN2COc3ccccc32)c(O)cc1CNC1CCCCC1`, the TGI was 34.6 µM in assay [1]; 78.5 µM in assay [2]; 52.2 µM in assay [3]; greater than 100 µM in assay [4]; 35.2 µM in assay [5]; 45 µM in [6]. For the same compound, the TGI in assay [7] is 50 µM; in assay [8], 31.2 µM; in [9], 67.5 µM; in assay [10] it was greater than 100 µM.

As for `NC(N)=NC(N)=Nc1ccccc1` (tested in a mixture with another compound), the TGI in assay [1], in assay [2], in assay [3], in [4], in assay [5] and in assay [6] was greater than 100 µM throughout. Besides, the TGI in [7], in assay [8], in [9] and in [10] was greater than 100 µM throughout.

Turning to `Cc1ccc(C2CC(c3cccc(Nc4ccncc4)c3)=NN2c2ccccc2)cc1` (stereo unspecified), the GI50 is 1.74 µM in [1]; 1.69 µM in assay [2]; 1.69 µM in assay [3]; 1.71 µM in assay [4]; 1.79 µM in [5]; 1.61 µM in [9]. For the same compound, the GI50 in assay [10] was 1.89 µM. In addition, the TGI in assay [1] worked out at 3.16 µM; in [2], 3.05 µM; in assay [3], 3.12 µM; in assay [4] it was 3.3 µM; in assay [5] it was 3.24 µM; in assay [9], 3.02 µM. In addition, the TGI in [10] stood at 3.6 µM.

Take `C=CCc1cccc(/C=N\N=C(/N)NO)c1O`: the TGI is 6.81 µM in assay [1]; 38.3 µM in assay [3]; greater than 100 µM in assay [4]; 20.7 µM in [5]; greater than 100 µM in [6]; greater than 54.4 µM in assay [7]. Also, the TGI in assay [8] was greater than 29.7 µM; in assay [9], 9.01 µM.

Consider `Nc1ccccc1N=Nc1c(S(=O)(=O)O)cc2cc(S(=O)(=O)O)cc(O)c2c1O`, for which the TGI in assay [2], in assay [3], in [4], in [5], in assay [6] and in assay [8] was greater than 100 µM in each case. Besides, the TGI in assay [9] and in assay [10] was greater than 100 µM throughout.

Regarding `CC1=CC(C)(C)Nc2ccc(CSc3ccccc3)cc21`, the TGI in assay [1] was greater than 100 µM; in assay [2], greater than 100 µM; in assay [3], 46.1 µM; in assay [4] it was greater than 100 µM; in [5], 32.9 µM; in [6], greater than 100 µM. Further, the TGI in assay [7] is 52.2 µM; in assay [8] it was 52.8 µM; in [9] it was greater than 100 µM; in assay [10], 71.5 µM.

Turning to `CC(C)CN(CC#N)CC(C)C`, the TGI in [2], in [3], in assay [4], in assay [5], in assay [6] and in assay [8] was greater than 100 µM in each case. In addition, the TGI in assay [9] and in assay [10] was greater than 100 µM each time.

`CC(=O)N/C(=C\c1ccc(/C=C(\NC(C)=O)C2=NC3C(=O)c4ccccc4C(=O)C3N2)cc1)C1=NC2C(=O)c3ccccc3C(=O)C2N1` (stereo unspecified): the TGI in [1], in [2], in assay [3], in [6], in [8] and in assay [9] was greater than 100 µM throughout.

On to `Cc1c2c(ccc3ccccc32)c[n+]2ccccc12`, for which the TGI is 33.2 µM in [1]; greater than 100 µM in assay [2]; 28.9 µM in assay [3]; greater than 100 µM in [4]; 16 µM in assay [5]; 31.1 µM in assay [6]. Besides, the TGI is 33.7 µM in assay [7], 33.7 µM in assay [8] and greater than 100 µM in [9].

With `C[N+](C)([O-])Cc1cc(-c2ccccc2)ccc1O`, the TGI in [2], in assay [3], in [4], in assay [5], in assay [6] and in assay [7] was greater than 100 µM throughout. The TGI in assay [9] and in assay [10] was greater than 100 µM throughout.

For `O=c1nc2sc3ccc4ccccc4c3n2[nH]c1=O`, the TGI in [1] is greater than 100 µM; in assay [3] it was 81.2 µM; in [4], greater than 100 µM; in [5], greater than 100 µM; in assay [6], greater than 100 µM; in [8], greater than 100 µM.

On to `O=C(O)Cn1c2c(c3c(O)cccc31)C(=O)c1ccccc1-2`, for which the GI50 is 5.62 µM in assay [1]; greater than 100 µM in [2]; greater than 100 µM in assay [3]; greater than 100 µM in assay [4]; greater than 100 µM in assay [5]; greater than 100 µM in assay [6]. The GI50 in assay [7] is greater than 100 µM; in assay [8], greater than 100 µM; in assay [9], greater than 100 µM; in assay [10], 0.0519 µM. Besides, the TGI in [1], in assay [2], in assay [3], in assay [4], in [5] and in assay [6] was greater than 100 µM in each case. Further, the TGI in assay [7], in assay [8], in assay [9] and in assay [10] was greater than 100 µM each time.

Regarding `C[C@]12CC[C@@H]3c4ccc(OCCN5CCCC5)cc4CC[C@H]3[C@@H]1CCC2=O`, the TGI in assay [2] is greater than 100 µM; in [3] it was greater than 100 µM; in [4], greater than 100 µM; in assay [5] it was 30 µM; in assay [6], greater than 100 µM; in [7], 35.1 µM. The TGI in [8] is 35.6 µM; in [9] it was 81.5 µM; in assay [10], greater than 100 µM.

`CCCCN=C1OCc2[nH][nH]c(=O)c21`: the TGI in assay [1], in assay [2], in assay [3], in assay [4], in assay [5] and in assay [6] was greater than 100 µM each time. Moreover, the TGI in assay [7], in [8] and in assay [9] was greater than 100 µM throughout.

For the compound `[O-][n+]1c(-c2ccccc2)c2nc3ccccc3nc2c2ccccc21`, the TGI in assay [1], in assay [2], in assay [3], in [4], in [5] and in assay [6] was greater than 100 µM throughout. Also, the TGI in assay [7], in [8] and in [9] was greater than 100 µM each time.

`O=C(O)c1nccnc1C(=O)O`: the TGI in assay [1], in assay [3], in assay [4], in assay [5], in assay [6] and in [7] was greater than 100 µM each time. Besides, the TGI in [8] and in assay [9] was greater than 100 µM in each case.

As for `CCCCCCCCCCCCCCCC(=O)OC1C(O)C(CO)OC(OC)C1NC(=O)N(CCCl)N=O` (stereo unspecified), the TGI was determined as 6.16 µM in assay [1]; 21.9 µM in assay [2]; 36.3 µM in assay [3]; 26.1 µM in assay [4]; 30.2 µM in [5]; 27.5 µM in [6]. The TGI in assay [7] is 44.3 µM; in assay [8], 40.4 µM; in assay [9] it was greater than 100 µM.

As for `CCCOC1OC(CS(=O)(=O)O)C(O)C(O)C1O` (stereo unspecified), the TGI in assay [3], in assay [4], in assay [5], in assay [6], in assay [7] and in assay [8] was greater than 100 µM in each case. Besides, the TGI in assay [9] and in assay [10] was greater than 100 µM throughout.

With `CN(C)C(=O)C1CCN(Cc2c[nH]c3ccccc23)CC1`, the TGI was greater than 100 µM in assay [2]; greater than 100 µM in [3]; 30.7 µM in assay [4]; greater than 100 µM in [5]; greater than 100 µM in assay [6]; greater than 100 µM in assay [7]. Also, the TGI in [8], in [9] and in assay [10] was greater than 100 µM in each case.

As for `CCOC(=O)NC(Nc1ccc(Cl)cn1)(C(F)(F)F)C(F)(F)F`, the TGI in assay [1], in assay [2], in [6], in assay [7] and in assay [10] was greater than 100 µM in each case.

In the case of `N#CCCN(CCC#N)c1ccc(/C=C2\N=C(c3cc([N+](=O)[O-])ccc3Cl)N(NC(=O)CC(=O)Nc3ccccc3Cl)C2=O)cc1`, the TGI in assay [1], in [2], in assay [3], in assay [4], in assay [5] and in assay [6] was greater than 100 µM each time. The TGI in assay [7], in assay [8] and in [9] was greater than 100 µM each time.

For the origin of these results see PubChem BioAssay (NCI).
